Source: ChEMBL document CHEMBL1821570, “Inhibition of the helicase activity of the HCV NS3 protein by symmetrical dimeric bis-benzimidazoles” (Bioorg Med Chem Lett, 2011)
Calls of active or inactive are those of the source. The rule behind the calls is not given here.

Legend:
Hepacivirus hominis [1] = assay: Inhibition of recombinant hepatitis C virus NS3 helicase domain NTPase activity by TLC
Hepacivirus hominis [2] = assay: Inhibition of recombinant hepatitis C virus NS3 helicase domain using DNA duplex S(DB11) labelled with [gamma-32P]ATP as substrate up to 400 after 30 mins
Hepacivirus hominis [3] = assay: Inhibition of recombinant hepatitis C virus NS3 helicase domain using DNA duplex S(DB2)b labelled with [gamma-32P]ATP as substrate up to 400 after 30 mins
Hepacivirus hominis [4] = assay: Inhibition of recombinant hepatitis C virus NS3 helicase domain using DNA duplex S(DB2)a labelled with [gamma-32P]ATP as substrate up to 400 after 30 mins
Hepacivirus hominis [5] = assay: Inhibition of recombinant hepatitis C virus NS3 helicase domain using DNA duplex SM1 labelled with [gamma-32P]ATP as substrate up to 400 after 30 mins
Hepacivirus hominis [6] = assay: Inhibition of recombinant hepatitis C virus NS3 helicase domain using DNA duplex S1 labelled with [gamma-32P]ATP as substrate up to 400 after 30 mins
Hepacivirus hominis [7] = assay: Inhibition of recombinant hepatitis C virus NS3 helicase domain NTPase activity at 400 uM by TLC in presence of poly(U)
[8] = Inhibition of recombinant hepatitis C virus NS3 helicase domain NTPase activity by TLC in presence of poly(U); parameters: species or system Hepacivirus hominis
Hepacivirus hominis [9] = assay: Enhancement of binding efficacy between compound-treated recombinant hepatitis C virus NS3 helicase and 32P-labelled SM1 DNA duplex after 10 mins
Hepacivirus hominis [10] = assay: Inhibition of recombinant hepatitis C virus NS3 helicase domain assessed as the enzyme concentration at which a half of compound molecules are bound by PTI spectrofluorimetry
Hepacivirus hominis [11] = assay: Inhibition of recombinant hepatitis C virus NS3 helicase domain by PTI spectrofluorimetry
[12] = Inhibition of recombinant hepatitis C virus NS3 helicase domain using RNA duplex rSM2 labelled with [gamma-32P]ATP as substrate after 30 mins; parameters: species or system Hepacivirus hominis
[13] = Inhibition of recombinant hepatitis C virus NS3 helicase domain using DNA duplex SM2 labelled with [gamma-32P]ATP as substrate after 30 mins; parameters: species or system Hepacivirus hominis
[14] = Inhibition of recombinant hepatitis C virus NS3 helicase domain using DNA duplex S(DB11) labelled with [gamma-32P]ATP as substrate after 30 mins; parameters: species or system Hepacivirus hominis
[15] = Inhibition of recombinant hepatitis C virus NS3 helicase domain using DNA duplex S(DB2)b labelled with [gamma-32P]ATP as substrate after 30 mins; parameters: species or system Hepacivirus hominis
[16] = Inhibition of recombinant hepatitis C virus NS3 helicase domain using DNA duplex S(DB2)a labelled with [gamma-32P]ATP as substrate after 30 mins; parameters: species or system Hepacivirus hominis
[17] = Inhibition of recombinant hepatitis C virus NS3 helicase domain using DNA duplex SM1 labelled with [gamma-32P]ATP as substrate after 30 mins; parameters: species or system Hepacivirus hominis
[18] = Inhibition of recombinant hepatitis C virus NS3 helicase domain using DNA duplex S1 labelled with [gamma-32P]ATP as substrate after 30 mins; parameters: species or system Hepacivirus hominis

CN1CCN(c2ccc3[nH]c(-c4ccc5[nH]c(-c6ccc(O)cc6)nc5c4)nc3c2)CC1
inhibition (Hepacivirus hominis [1]): inactive | inhibition (Hepacivirus hominis [2]): inactive | inhibition (Hepacivirus hominis [3]): inactive | inhibition (Hepacivirus hominis [4]): inactive | inhibition (Hepacivirus hominis [5]): inactive | inhibition (Hepacivirus hominis [6]): inactive

CN1CCN(c2ccc3nc(-c4ccc5nc(CNC(=O)CCC(=O)NCc6nc7ccc(-c8nc9ccc(N%10CCN(C)CC%10)cc9[nH]8)cc7[nH]6)[nH]c5c4)[nH]c3c2)CC1
inhibition (Hepacivirus hominis [7]): inactive | IC50 [8]: 280 µM | inhibition (Hepacivirus hominis [1]): inactive | Activity (Hepacivirus hominis [9]): inactive | Activity (Hepacivirus hominis [10]): 51 µM | inhibition (Hepacivirus hominis [11]): inactive | IC50 [12]: 38 µM | IC50 [13]: 240 µM | IC50 [14]: 240 µM | IC50 [15]: 260 µM | IC50 [16]: 250 µM | IC50 [17]: 230 µM | IC50 [18]: > 100 µM

CN1CCN(c2ccc3nc(-c4ccc5nc(CNC(=O)CCCCC(=O)NCc6nc7ccc(-c8nc9ccc(N%10CCN(C)CC%10)cc9[nH]8)cc7[nH]6)[nH]c5c4)[nH]c3c2)CC1
inhibition (Hepacivirus hominis [1]): inactive | IC50 [14]: 170 µM | IC50 [15]: 240 µM | IC50 [16]: 150 µM | IC50 [17]: 230 µM

CN1CCN(c2ccc3nc(-c4ccc5nc(CNC(=O)CCCCCCCCCCCC(=O)NCc6nc7ccc(-c8nc9ccc(N%10CCN(C)CC%10)cc9[nH]8)cc7[nH]6)[nH]c5c4)[nH]c3c2)CC1
inhibition (Hepacivirus hominis [7]): inactive | IC50 [8]: 20 µM | inhibition (Hepacivirus hominis [1]): inactive | Activity (Hepacivirus hominis [9]): Active | Activity (Hepacivirus hominis [10]): 7.3 µM | inhibition (Hepacivirus hominis [11]): Active | IC50 [12]: 1.4 µM | IC50 [13]: 9 µM | IC50 [14]: 8 µM | IC50 [15]: 12 µM | IC50 [16]: 7 µM | IC50 [17]: 7 µM | IC50 [18]: 10 µM

CC(=O)NCc1nc2ccc(-c3nc4ccc(N5CCN(C)CC5)cc4[nH]3)cc2[nH]1
inhibition (Hepacivirus hominis [1]): inactive | inhibition (Hepacivirus hominis [2]): inactive | inhibition (Hepacivirus hominis [3]): inactive | inhibition (Hepacivirus hominis [4]): inactive | inhibition (Hepacivirus hominis [5]): inactive | inhibition (Hepacivirus hominis [6]): inactive

CN1CCN(c2ccc3nc(-c4ccc5nc(CNC(=O)CCCCCC(=O)NCc6nc7ccc(-c8nc9ccc(N%10CCN(C)CC%10)cc9[nH]8)cc7[nH]6)[nH]c5c4)[nH]c3c2)CC1
inhibition (Hepacivirus hominis [1]): inactive | IC50 [14]: 160 µM | IC50 [15]: 200 µM | IC50 [16]: 150 µM | IC50 [17]: 225 µM | IC50 [18]: > 100 µM

CN1CCN(c2ccc3nc(-c4ccc5nc(CNC(=O)CCCCCCCC(=O)NCc6nc7ccc(-c8nc9ccc(N%10CCN(C)CC%10)cc9[nH]8)cc7[nH]6)[nH]c5c4)[nH]c3c2)CC1
inhibition (Hepacivirus hominis [1]): inactive | IC50 [14]: 140 µM | IC50 [15]: 140 µM | IC50 [16]: 150 µM | IC50 [17]: 210 µM | IC50 [18]: > 100 µM

CN(CCCOc1ccc(-c2nc3ccc(-c4nc5ccc(N6CCN(C)CC6)cc5[nH]4)cc3[nH]2)cc1)CCCOc1ccc(-c2nc3ccc(-c4nc5ccc(N6CCN(C)CC6)cc5[nH]4)cc3[nH]2)cc1
inhibition (Hepacivirus hominis [1]): inactive | IC50 [14]: 15 µM | IC50 [15]: 10 µM | IC50 [16]: 12 µM | IC50 [17]: 18 µM | IC50 [18]: 5 µM

CN1CCN(c2ccc3nc(-c4ccc5nc(CNC(=O)CCCC(=O)NCc6nc7ccc(-c8nc9ccc(N%10CCN(C)CC%10)cc9[nH]8)cc7[nH]6)[nH]c5c4)[nH]c3c2)CC1
inhibition (Hepacivirus hominis [1]): inactive | IC50 [14]: 230 µM | IC50 [15]: 250 µM | IC50 [16]: 220 µM | IC50 [17]: 235 µM | IC50 [18]: > 100 µM
